Reference: patent US20190381086A1, “INHIBITION OF NEDDYLATION USING GLYCYL-tRNA SYNTHETASE INHIBITORS” (The Scripps Research Institute, priority 2015, published 2019)

System: IGROV1
Format: cell-based
Details: IGROV1, Ovarian Cancer

Compound: NCC(=O)NS(=O)(=O)OC[C@H]1O[C@@H](n2cnc3c(N)ncnc32)[C@H](O)[C@@H]1O [GlySA, glycylsulfamoyladenosine]
- GI50 (Homo sapiens, IGROV-1): 3.02 µM
- CC50 (Homo sapiens, IGROV-1, read-out: LC50 (the source's name)): 47.9 µM
- LC50/GI50: 15.8
